Experimental data taken from patent US20190151495A1, “Composite biomaterials with controlled release of active ingredient, preparation process and uses” (CENTRE NATIONAL DE LA RECHERCHE SCIENTIFIQUE, priority 2016, published 2019).

Assays:
[1] = target: T1, mineralocorticoid receptor (Rattus norvegicus, UniProt P22199); test: Biological activity of spironolactone: luciferase reporter in H9C2 cells incubated with aldosterone; type: cell-based; conditions: FIG. 12
T1 construct: H9C2 cells are myoblasts genetically modified by the incorporation of the reporter gene encoding luciferase; endogenous in cells; host or cells: H9C2 myoblasts carrying a luciferase reporter
T1 sequence (P22199 1-981): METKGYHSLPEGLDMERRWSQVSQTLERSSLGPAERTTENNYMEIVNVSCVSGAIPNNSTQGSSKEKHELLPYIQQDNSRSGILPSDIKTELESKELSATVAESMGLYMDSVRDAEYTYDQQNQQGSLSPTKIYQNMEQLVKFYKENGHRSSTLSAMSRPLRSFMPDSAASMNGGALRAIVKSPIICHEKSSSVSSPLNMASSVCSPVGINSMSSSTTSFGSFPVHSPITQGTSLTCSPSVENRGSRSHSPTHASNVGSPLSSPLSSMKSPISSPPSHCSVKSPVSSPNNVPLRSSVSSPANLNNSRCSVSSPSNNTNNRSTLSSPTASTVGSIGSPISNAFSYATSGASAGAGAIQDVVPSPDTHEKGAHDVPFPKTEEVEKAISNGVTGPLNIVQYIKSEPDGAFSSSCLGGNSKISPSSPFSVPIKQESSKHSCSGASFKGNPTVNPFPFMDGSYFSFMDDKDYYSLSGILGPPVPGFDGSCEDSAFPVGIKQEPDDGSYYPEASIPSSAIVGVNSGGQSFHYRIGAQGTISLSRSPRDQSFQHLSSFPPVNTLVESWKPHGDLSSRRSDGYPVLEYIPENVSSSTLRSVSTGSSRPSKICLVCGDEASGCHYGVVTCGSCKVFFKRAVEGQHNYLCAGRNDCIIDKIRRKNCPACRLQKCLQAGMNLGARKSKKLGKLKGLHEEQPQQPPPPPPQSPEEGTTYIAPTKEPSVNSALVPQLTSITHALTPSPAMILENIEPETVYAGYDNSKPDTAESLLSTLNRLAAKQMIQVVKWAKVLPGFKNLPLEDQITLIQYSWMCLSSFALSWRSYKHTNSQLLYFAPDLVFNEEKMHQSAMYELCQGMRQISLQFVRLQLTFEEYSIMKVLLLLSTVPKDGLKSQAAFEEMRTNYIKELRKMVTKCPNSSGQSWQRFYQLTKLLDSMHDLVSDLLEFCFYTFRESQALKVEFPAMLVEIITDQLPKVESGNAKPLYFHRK
Method: The biological activity of the spironolactone was measured in the following manner: H9C2 cells are myoblasts genetically modified by the incorporation of the reporter gene encoding luciferase downstream of the promoter having sequences binding the complex of aldosterone plus its receptor. When aldosterone was added, luciferase was expressed and detected by bioluminescence. […] This inhibition reports the biological activity of the spironolactone on H9C2s incubated with aldosterone. The spironolactone activity was measured directly on the spironolactone releasing liquid originating from the different types of hydrogels tested.
FIG. 12 represents the biological activity of the spironolactone released from a hydrogel after 15 days of incubation in PBS (with changing of the buffer every day); when the following are used:
(2) a mixture of a material MB-S with aldosterone at approximately 10^−8 M,
(3) a mixture of a material MC-S with aldosterone at approximately 10^−8 M,
(4) a mixture of a material MA-S with aldosterone at approximately 10^−8 M,
(5) a negative control (well containing the culture medium without aldosterone),
(6) aldosterone at approximately 10^−8 M, and
(7) a mixture of aldosterone at approximately 10^−8 M and spironolactone at approximately 10^−6 M.

[2] = system: primary human dermal fibroblasts; test: Toxicity of the materials: cell viability by metabolic test (AlamarBlue Assay); type: cell-based; conditions: FIG. 11
Method: The toxicity of the materials was measured as follows: primary human dermal fibroblasts were seeded onto a culture plate. The composite hydrogels were then incubated with the fibroblasts for 1 or 6 days. The cell viability was measured by a metabolic test (AlamarBlue Assay®) and compared with that of control fibroblasts (without addition of composite hydrogel).
FIG. 11 represents the toxicity of the composite biomaterial of the invention M1-S on cells (fibroblasts) and by way of comparison: • the toxicity of a dry collagen material impregnated with spironolactone MB-S obtained from the dehydrated pure collagen material MA-HD as obtained in example 1.3 which was impregnated with a solution comprising approximately 10^−2 M of spironolactone in THF, rinsed and lyophilized in accordance with example 1.4 above, • the toxicity of a dry collagen material impregnated with PLGA MC-S obtained from the dehydrated pure collagen material MA-HD as obtained in example 1.3 which was impregnated with a solution comprising approximately 160 mg/ml of PLGA 30-60 kDa in THF, rinsed and lyophilized in accordance with example 1.4, and • the toxicity of a dry pure collagen material MA-S as obtained in example 1.3.
Moreover, C represents a negative control (well containing just the cells without hydrogel). […]

Compound | production of luciferase (inhibition of aldosterone effect) ([1]; free spironolactone approximately 10^-6 M with aldosterone approximately 10^-8 M, conditions (7)) | toxicity on cells (in words) ([2]; 1 day and 6 days, compared with control) | cell viability (cells survived) ([2]; first day, relative to negative control C) | production of luciferase (receptor activation) ([1]; aldosterone approximately 10^-8 M alone, conditions (6) versus negative control (5))
CC(=O)S[C@@H]1CC2=CC(=O)CC[C@]2(C)[C@H]2CC[C@@]3(C)[C@@H](CC[C@@]34CCC(=O)O4)[C@H]12 [spironolactone] | the effect of the aldosterone is inhibited | slight toxic effect | 74% | –
C[C@]12CCC(=O)C=C1CC[C@@H]1[C@@H]2[C@@H](O)C[C@]2(C=O)[C@@H](C(=O)CO)CC[C@@H]12 [aldosterone] | – | – | – | caused strong transcription
